Experimental data published in ChEMBL document CHEMBL1201862, “PubChem BioAssay data set” (2004).
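Briefly, cells in 96-well plates were exposed to five compound concentrations for 48 h, and endpoints were estimated by linear interpolation. At the GI50, growth is halved.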 Active and inactive are the calls of the source. Rule as the data show it: active = GI50 up to about 1.1 µM and inactive = higher.

Assays:
Assay in all cases: NCI-60 cell line screen, 48 h
786-0 = system: 786-0
A498 = system: A498
BT-549 = system: BT-549
HCT-116 = system: HCT-116
HCT-15 = system: HCT-15
HOP-62 = system: HOP-62
HOP-92 = system: HOP-92
IGROV-1 = system: IGROV-1
MCF7 = system: MCF7
MDA-MB-231 = system: MDA-MB-231
MDA-N = system: MDA-N
NCI-H460 = system: NCI-H460
NCI-H522 = system: NCI-H522
RPMI-8226 = system: RPMI-8226
SF-295 = system: SF-295
SF-539 = system: SF-539
SN12C = system: SN12C
SW-620 = system: SW-620
TK-10 = system: TK-10
UACC-257 = system: UACC-257

**Q.** `O=C(O)C/C(=C\c1ccccc1)C(=O)O` was tested. Which GI50 (786-0) did it give?
**A.** > 100 µM (inactive)

**Q.** What about the GI50 (A498) of the same molecule?
**A.** > 100 µM (inactive)

**Q.** What about the GI50 (BT-549) of the same molecule?
**A.** > 100 µM (inactive)

**Q.** And the GI50 (HCT-116)?
**A.** > 100 µM (inactive)

**Q.** And the GI50 (HCT-15)?
**A.** > 100 µM

**Q.** What about the GI50 (HOP-62) of the same molecule?
**A.** > 100 µM (inactive)

**Q.** What about the GI50 (HOP-92) of the same molecule?
**A.** > 100 µM (inactive)

**Q.** What about the GI50 (IGROV-1) of the same molecule?
**A.** > 100 µM (inactive)

**Q.** What about the GI50 (MCF7) of the same molecule?
**A.** > 100 µM (inactive)

**Q.** What about the GI50 (MDA-MB-231) of the same molecule?
**A.** > 100 µM (inactive)

**Q.** What about the GI50 (MDA-N) of the same molecule?
**A.** > 100 µM (inactive)

**Q.** And the GI50 (NCI-H460)?
**A.** > 100 µM (inactive)

**Q.** What about the GI50 (NCI-H522) of the same molecule?
**A.** > 100 µM (inactive)

**Q.** And the GI50 (RPMI-8226)?
**A.** > 100 µM (inactive)

**Q.** And the GI50 (SF-295)?
**A.** > 100 µM (inactive)

**Q.** What about the GI50 (SF-539) of the same molecule?
**A.** > 100 µM (inactive)

**Q.** And the GI50 (SN12C)?
**A.** > 100 µM (inactive)

**Q.** And the GI50 (SW-620)?
**A.** > 100 µM (inactive)

**Q.** And the GI50 (TK-10)?
**A.** > 100 µM (inactive)

**Q.** And the GI50 (UACC-257)?
**A.** > 100 µM (inactive)

**Q.** `CN(C)c1ccc(/C=C/C=c2/c3ccccc3n3c2cc(-c2ccccc2)[n+]3C)cc1` was tested. Which GI50 (786-0) did it give?
**A.** 0.252 µM (active)

**Q.** What about the GI50 (A498) of the same molecule?
**A.** 0.387 µM (active)

**Q.** What about the GI50 (BT-549) of the same molecule?
**A.** 0.233 µM (active)

**Q.** And the GI50 (HCT-116)?
**A.** 0.0386 µM (active)

**Q.** And the GI50 (HCT-15)?
**A.** 0.488 µM

**Q.** What about the GI50 (HOP-62) of the same molecule?
**A.** 0.303 µM (active)

**Q.** And the GI50 (HOP-92)?
**A.** 0.318 µM (active)

**Q.** What about the GI50 (IGROV-1) of the same molecule?
**A.** 0.238 µM (active)

**Q.** What about the GI50 (MCF7) of the same molecule?
**A.** 0.0935 µM (active)

**Q.** And the GI50 (MDA-MB-231)?
**A.** 0.466 µM (active)

**Q.** What about the GI50 (MDA-N) of the same molecule?
**A.** 0.234 µM (active)

**Q.** And the GI50 (NCI-H460)?
**A.** 0.307 µM (active)

**Q.** And the GI50 (NCI-H522)?
**A.** 0.0548 µM (active)

**Q.** And the GI50 (RPMI-8226)?
**A.** 0.149 µM (active)

**Q.** And the GI50 (SF-295)?
**A.** 0.288 µM (active)

**Q.** What about the GI50 (SF-539) of the same molecule?
**A.** 0.171 µM (active)

**Q.** What about the GI50 (SN12C) of the same molecule?
**A.** 0.243 µM (active)

**Q.** And the GI50 (SW-620)?
**A.** 0.0731 µM (active)

**Q.** What about the GI50 (TK-10) of the same molecule?
**A.** 0.564 µM (active)

**Q.** And the GI50 (UACC-257)?
**A.** 0.182 µM (active)

**Q.** What does the source list for `COc1cc2c3cc1Oc1c(OC)c(OC)cc4c1C(=NCC4)Cc1ccc(cc1)Oc1cc(ccc1O)C[C@H]3N(C)CC2`?
**A.** GI50 (786-0): 10.4 µM (inactive); GI50 (A498): 22 µM (inactive); GI50 (BT-549): 12.5 µM (inactive); GI50 (HCT-116): 12 µM (inactive); GI50 (HCT-15): 12.2 µM; GI50 (HOP-62): 22.3 µM (inactive); GI50 (HOP-92): 13.6 µM (inactive); GI50 (IGROV-1): 25.4 µM (inactive); GI50 (MCF7): 25.8 µM (inactive); GI50 (MDA-MB-231): 12.9 µM (inactive); GI50 (MDA-N): 16.6 µM (inactive); GI50 (NCI-H460): 15.6 µM (inactive); GI50 (NCI-H522): 10.7 µM (inactive); GI50 (RPMI-8226): 16.3 µM (inactive); GI50 (SF-295): 19.4 µM (inactive); GI50 (SF-539): 14.8 µM (inactive); GI50 (SN12C): 22.9 µM (inactive); GI50 (SW-620): 17.3 µM (inactive); GI50 (TK-10): 20.6 µM (inactive); GI50 (UACC-257): 16 µM (inactive)

**Q.** How did the GI50 (786-0) turn out when `C[C@]12CC/C(=N\OCCN3CCCCC3)C=C1CCC1C2CC[C@@]2(C)C1CC[C@]2(C)O` (stereo not given in full) was run?
**A.** 5.14 µM (inactive)

**Q.** And the GI50 (A498)?
**A.** 3.14 µM (inactive)

**Q.** And the GI50 (BT-549)?
**A.** 10 µM (inactive)

**Q.** And the GI50 (HCT-116)?
**A.** 7.38 µM (inactive)

**Q.** What about the GI50 (HCT-15) of the same molecule?
**A.** 5 µM

**Q.** And the GI50 (HOP-62)?
**A.** 15.2 µM (inactive)

**Q.** What about the GI50 (HOP-92) of the same molecule?
**A.** 8.41 µM (inactive)

**Q.** What about the GI50 (IGROV-1) of the same molecule?
**A.** 11.9 µM (inactive)

**Q.** What about the GI50 (MCF7) of the same molecule?
**A.** 4.75 µM (inactive)

**Q.** And the GI50 (MDA-MB-231)?
**A.** 11.7 µM (inactive)

**Q.** And the GI50 (MDA-N)?
**A.** 3.32 µM (inactive)

**Q.** And the GI50 (NCI-H460)?
**A.** 5.26 µM (inactive)

**Q.** And the GI50 (NCI-H522)?
**A.** 2.24 µM (inactive)

**Q.** And the GI50 (RPMI-8226)?
**A.** 12.7 µM (inactive)

**Q.** And the GI50 (SF-295)?
**A.** 3.5 µM (inactive)

**Q.** What about the GI50 (SF-539) of the same molecule?
**A.** 7.35 µM (inactive)

**Q.** What about the GI50 (SN12C) of the same molecule?
**A.** 15.3 µM (inactive)

**Q.** What about the GI50 (SW-620) of the same molecule?
**A.** 5.65 µM (inactive)

**Q.** And the GI50 (TK-10)?
**A.** 12.4 µM (inactive)

**Q.** What about the GI50 (UACC-257) of the same molecule?
**A.** 5.57 µM (inactive)

**Q.** Which results are given for `O=C([O-])C[n+]1ccccc1.c1ccncc1`?
**A.** GI50 (786-0): > 100 µM (inactive); GI50 (A498): > 100 µM (inactive); GI50 (BT-549): > 100 µM (inactive); GI50 (HCT-116): > 100 µM (inactive); GI50 (HCT-15): > 100 µM; GI50 (HOP-62): > 100 µM (inactive); GI50 (HOP-92): > 100 µM (inactive); GI50 (IGROV-1): > 100 µM (inactive); GI50 (MCF7): > 100 µM (inactive); GI50 (MDA-MB-231): > 100 µM (inactive); GI50 (MDA-N): > 100 µM (inactive); GI50 (NCI-H460): > 100 µM (inactive); GI50 (NCI-H522): > 100 µM (inactive); GI50 (RPMI-8226): > 100 µM (inactive); GI50 (SF-295): > 100 µM (inactive); GI50 (SF-539): > 100 µM (inactive); GI50 (SN12C): > 100 µM (inactive); GI50 (SW-620): > 100 µM (inactive); GI50 (TK-10): > 100 µM (inactive); GI50 (UACC-257): > 100 µM (inactive)

**Q.** For `C=CC[C@H](O)[C@@](NC(=O)OCc1ccccc1)(Sc1ccc(C)cc1)C(F)(F)F`, which GI50 (786-0) is on record?
**A.** 16.9 µM (inactive)

**Q.** And the GI50 (A498)?
**A.** 65.3 µM (inactive)

**Q.** And the GI50 (BT-549)?
**A.** 10.9 µM (inactive)

**Q.** What about the GI50 (HCT-116) of the same molecule?
**A.** 20.5 µM (inactive)

**Q.** And the GI50 (HCT-15)?
**A.** 24.9 µM

**Q.** What about the GI50 (HOP-62) of the same molecule?
**A.** 28.9 µM (inactive)

**Q.** What about the GI50 (HOP-92) of the same molecule?
**A.** 38.6 µM (inactive)

**Q.** What about the GI50 (IGROV-1) of the same molecule?
**A.** 10.1 µM (inactive)

**Q.** What about the GI50 (MCF7) of the same molecule?
**A.** 23.5 µM (inactive)

**Q.** What about the GI50 (MDA-MB-231) of the same molecule?
**A.** 24.8 µM (inactive)

**Q.** And the GI50 (MDA-N)?
**A.** 19.2 µM (inactive)

**Q.** What about the GI50 (NCI-H460) of the same molecule?
**A.** 30.7 µM (inactive)

**Q.** What about the GI50 (NCI-H522) of the same molecule?
**A.** 15.5 µM (inactive)

**Q.** And the GI50 (RPMI-8226)?
**A.** 23.4 µM (inactive)

**Q.** And the GI50 (SF-295)?
**A.** 21.9 µM (inactive)

**Q.** What about the GI50 (SF-539) of the same molecule?
**A.** 14.6 µM (inactive)

**Q.** And the GI50 (SN12C)?
**A.** 17.3 µM (inactive)

**Q.** What about the GI50 (SW-620) of the same molecule?
**A.** 32.1 µM (inactive)

**Q.** What about the GI50 (TK-10) of the same molecule?
**A.** 33.8 µM (inactive)

**Q.** And the GI50 (UACC-257)?
**A.** 23.4 µM (inactive)

**Q.** What does the source list for `CC(C)C(OC(=O)c1ccc(NCc2cc(O)ccc2O)cc1)C(C)C`?
**A.** GI50 (786-0): 1.14 µM (inactive); GI50 (A498): 2.25 µM (inactive); GI50 (BT-549): 0.547 µM (active); GI50 (HCT-116): 2.76 µM (inactive); GI50 (HCT-15): 0.317 µM; GI50 (HOP-62): 7.94 µM (inactive); GI50 (HOP-92): 0.424 µM (active); GI50 (IGROV-1): 0.855 µM (active); GI50 (MCF7): 2.87 µM (inactive); GI50 (MDA-MB-231): 2.07 µM (inactive); GI50 (MDA-N): 2.39 µM (inactive); GI50 (NCI-H460): 3.5 µM (inactive); GI50 (NCI-H522): 0.16 µM (active); GI50 (RPMI-8226): 0.194 µM (active); GI50 (SF-295): 3.74 µM (inactive); GI50 (SF-539): 1.09 µM (active); GI50 (SN12C): 2.42 µM (inactive); GI50 (SW-620): 1.96 µM (inactive); GI50 (TK-10): 1.66 µM (inactive); GI50 (UACC-257): 1.39 µM (inactive)
